Assay results: paper PMC5772236, “In Vitro Enzymatic Depolymerization of Lignin with Release of Syringyl, Guaiacyl, and Tricin Units” (Applied and Environmental Microbiology, 2018)

Tests used:
Type in all cases: biochemical
[1] = target: T1, AvGR (Allochromatium vinosum, UniProt D3RSV1); experiment: coupled assay with and without AvGR, HPLC of products; settings: 25 mM Tris, 2% DMSO, pH 8.0; NADH formed in situ by LigD/LigN; GSSG co-substrate
T1 construct: gene Alvin_1323; recombinant, E. coli B834, codon optimized, pVP302K; N-terminal His tag cut by Tev protease
T1 sequence (D3RSV1 1-458): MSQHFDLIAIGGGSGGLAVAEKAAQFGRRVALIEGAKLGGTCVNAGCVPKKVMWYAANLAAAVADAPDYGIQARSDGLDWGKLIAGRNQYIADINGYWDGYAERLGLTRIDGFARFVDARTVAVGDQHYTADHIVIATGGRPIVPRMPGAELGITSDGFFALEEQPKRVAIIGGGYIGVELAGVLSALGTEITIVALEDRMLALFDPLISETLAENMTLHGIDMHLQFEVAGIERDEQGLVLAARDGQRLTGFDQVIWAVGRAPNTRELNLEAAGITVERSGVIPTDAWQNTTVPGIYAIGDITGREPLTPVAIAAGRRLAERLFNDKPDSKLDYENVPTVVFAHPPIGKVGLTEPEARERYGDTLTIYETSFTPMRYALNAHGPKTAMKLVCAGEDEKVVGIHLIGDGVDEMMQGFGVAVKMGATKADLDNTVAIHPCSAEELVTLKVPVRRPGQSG

[2] = target: T2, LigG (Sphingomonas paucimobilis, UniProt Q9WXJ9); experiment: coupled assay, HPLC of products; settings: 25 mM Tris, 2% DMSO, pH 8.0, GSH co-substrate; GS-HPV formed in situ by LigD/LigN/LigE/LigF; epimers not both completely cleaved
T2 construct: recombinant, E. coli, codon optimized; His tag cut by Tev protease (procedure cited)
T2 sequence (Q9WXJ9 1-265): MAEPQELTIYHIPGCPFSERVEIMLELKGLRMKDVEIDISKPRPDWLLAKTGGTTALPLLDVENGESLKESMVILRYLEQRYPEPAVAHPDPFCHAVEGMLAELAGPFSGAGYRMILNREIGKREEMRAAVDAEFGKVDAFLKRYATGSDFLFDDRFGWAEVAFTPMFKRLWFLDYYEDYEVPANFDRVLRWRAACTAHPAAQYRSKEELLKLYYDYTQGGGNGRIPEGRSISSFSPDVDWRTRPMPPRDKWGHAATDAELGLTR

[3] = target: T3, NaGSTNU (Novosphingobium aromaticivorans, UniProt Q2G542); experiment: coupled assay with and without enzyme, HPLC of products; settings: 25 mM Tris, 2% DMSO, pH 8.0, GSH co-substrate; GS-HPV formed in situ by LigD/LigN/LigE/LigF; both beta-epimers cleaved
T3 construct: gene Saro_2595; recombinant, E. coli B834; N-terminal His tag cut by Tev protease; cloned from genomic DNA
T3 sequence (Q2G542 1-288): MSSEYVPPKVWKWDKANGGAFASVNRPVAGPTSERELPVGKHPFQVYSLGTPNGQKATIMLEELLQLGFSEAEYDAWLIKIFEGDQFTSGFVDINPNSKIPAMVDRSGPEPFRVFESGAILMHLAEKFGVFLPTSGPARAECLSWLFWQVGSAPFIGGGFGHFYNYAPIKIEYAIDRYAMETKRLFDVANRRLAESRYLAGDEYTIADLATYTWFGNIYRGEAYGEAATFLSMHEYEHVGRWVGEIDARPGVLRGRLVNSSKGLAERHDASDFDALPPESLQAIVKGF

## NC(=O)C1=CN([C@@H]2O[C@H](COP(=O)(O)OP(=O)(O)OC[C@H]3O[C@@H](n4cnc5c(N)ncnc54)[C@H](O)[C@@H]3O)[C@@H](O)[C@H]2O)C=CC1 [NADH]
[1]
  coupled assay with and without AvGR, HPLC of products: the presence of AvGR is sufficient to recycle the cosubstrates NAD^+ and GSH

## COc1cc(C(=O)C(CO)SC[C@H](NC(=O)CC[C@H](N)C(=O)O)C(=O)NCC(=O)O)ccc1O (mixture of isomers) [GS-HPV, β-S-glutathionyl-γ-hydroxypropiovanillone]
[2]
  coupled assay, HPLC of products: LigG is not able to completely cleave both β-epimers of GS-HPV in vitro
[3]
  coupled assay with and without enzyme, HPLC of products: the absence of NaGSTNU prevented the conversion of GS-HPV to HPV
